Data: the supplement of paper PMC4862054
“And” between values parts separate entries of the source, which are not always exact repeats. Identical values can stand only once.

Legend:
Conditions in all cases: incubation time: 72 h
MDA-MB-453 [1] = assay: normalised viability (% of control), CellTiter-Blue; higher = more viable cells (100 = DMSO, 0 = benzethonium chloride kill control)
Outline: (§1)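 Normalised viability is given for a single listed concentration of the series. In 384-well plates, breast cancer cell lines were incubated 72 h with compound, then read with CellTiter-Blue (2 h, 37 °C) at 560/590 nm. Per-plate scaling set vehicle to 100 and a positive kill control to 0, with Z'-factor quality control.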

DU-4475 [2] = assay: as above
Outline: as §1

HCC1143 [3] = assay: as above
Outline: as §1

MDA-MB-231 [4] = assay: as above
Outline: as §1

CAL-85-1 [5] = assay: as above
Outline: as §1

HDQ-P1 [6] = assay: as above
Outline: as §1

CAL-120 [7] = assay: as above
Outline: as §1

MDA-MB-436 [8] = assay: as above
Outline: as §1

HCC1937 [9] = assay: as above
Outline: as §1

BT-474 [10] = assay: as above
Outline: as §1

HCC1599 [11] = assay: as above
Outline: as §1

MFM-223 [12] = assay: as above
Outline: as §1

Hs578T [13] = assay: as above
Outline: as §1

CAL-148 [14] = assay: as above
Outline: as §1

MDA-MB-468 [15] = assay: as above
Outline: as §1

BT-549 [16] = assay: as above
Outline: as §1

CAL-51 [17] = assay: as above
Outline: as §1

SK-BR-3 [18] = assay: as above
Outline: as §1

MDA-MB-453 [19] = assay: normalised response (% of control), CellTiter-Glo; higher = more viable cells (100 = DMSO, 0 = benzethonium chloride kill control)
Outline: (§2)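 Normalised signals at single concentrations make up the values. They come from breast cancer cell lines seeded (20 µl suspension) into 384-well plates with compound at 5 concentrations in 10-fold steps over a compound-specific 10,000-fold range, incubated 72 h, and read for CellTox Green fluorescence then CellTiter-Glo luminescence. Each plate was normalised to 0.1 % DMSO (100) and a positive kill control (0).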

MCF-10A = assay: as above
Outline: as §2

DU-4475 [20] = assay: as above
Outline: as §2

HCC1143 [21] = assay: as above
Outline: as §2

MDA-MB-231 [22] = assay: as above
Outline: as §2

CAL-85-1 [23] = assay: as above
Outline: as §2

HDQ-P1 [24] = assay: as above
Outline: as §2

CAL-120 [25] = assay: as above
Outline: as §2

MDA-MB-436 [26] = assay: as above
Outline: as §2

HCC1937 [27] = assay: as above
Outline: as §2

BT-474 [28] = assay: as above
Outline: as §2

HCC1599 [29] = assay: as above
Outline: as §2

MFM-223 [30] = assay: as above
Outline: as §2

Hs578T [31] = assay: as above
Outline: as §2

CAL-148 [32] = assay: as above
Outline: as §2

MDA-MB-468 [33] = assay: as above
Outline: as §2

BT-549 [34] = assay: as above
Outline: as §2

CAL-51 [35] = assay: as above
Outline: as §2

SK-BR-3 [36] = assay: as above
Outline: as §2

| SMILES | normalised viability (MDA-MB-453 [1]) | normalised viability (DU-4475 [2]) | normalised viability (HCC1143 [3]) | normalised viability (MDA-MB-231 [4]) | normalised viability (CAL-85-1 [5]) | normalised viability (HDQ-P1 [6]) | normalised viability (CAL-120 [7]) | normalised viability (MDA-MB-436 [8]) | normalised viability (HCC1937 [9]) | normalised viability (BT-474 [10]) | normalised viability (HCC1599 [11]) | normalised viability (MFM-223 [12]) | normalised viability (Hs578T [13]) | normalised viability (CAL-148 [14]) | normalised viability (MDA-MB-468 [15]) | normalised viability (BT-549 [16]) | normalised viability (CAL-51 [17]) | normalised viability (SK-BR-3 [18]) | normalised response (MDA-MB-453 [19]) [%] | normalised response (MCF-10A) [%] | normalised response (DU-4475 [20]) [%] | normalised response (HCC1143 [21]) [%] | normalised response (MDA-MB-231 [22]) [%] | normalised response (CAL-85-1 [23]) [%] | normalised response (HDQ-P1 [24]) [%] | normalised response (CAL-120 [25]) [%] | normalised response (MDA-MB-436 [26]) [%] | normalised response (HCC1937 [27]) [%] | normalised response (BT-474 [28]) [%] | normalised response (HCC1599 [29]) [%] | normalised response (MFM-223 [30]) [%] | normalised response (Hs578T [31]) [%] | normalised response (CAL-148 [32]) [%] | normalised response (MDA-MB-468 [33]) [%] | normalised response (BT-549 [34]) [%] | normalised response (CAL-51 [35]) [%] | normalised response (SK-BR-3 [36]) [%] |
| --- | --- | --- | --- | --- | --- | --- | --- | --- | --- | --- | --- | --- | --- | --- | --- | --- | --- | --- | --- | --- | --- | --- | --- | --- | --- | --- | --- | --- | --- | --- | --- | --- | --- | --- | --- | --- | --- |
| C/C(=C\c1csc(C)n1)[C@@H]1C[C@@H]2O[C@]2(C)CCC[C@H](C)[C@H](O)[C@@H](C)C(=O)C(C)(C)[C@@H](O)CC(=O)N1 [Ixabepilone] (0.1 nM) | 93.5% | 107% | 80.9% | 99.1% | 84% | 97.2% | 78.8% | 104% | 89.2% | 90.4% | 97.3% | 78.8% | 90% | 105% | 86.7% | 90.8% | 110% | 79.6% | 127 | 107 | 101 | 98.5 | 103 | 97.6 | 100 | 95.5 | 105 | 98 | 104 | 115 | 103 | 100 | 99.3 | 104 | 98.8 | 80 | 108 |
| C=CCn1c(=O)c2cnc(Nc3ccc(N4CCN(C)CC4)cc3)nc2n1-c1cccc(C(C)(C)O)n1 [MK1775] (1 nM) | 104% | 86.6% | 104% | 95.2% | 78.4% | 84.2% | 83.5% | 97.9% | 106% | 90.5% | 103% | 94.8% | 106% | 99.8% | 105% | 107% | 89% | 92.9% | 90.2 | 80.6 | 96.6 | 91.4 | 90.5 | 101 | 87.7 | 92.9 | 85.8 | 97.9 | 94.4 | 105 | 85.6 | 95.8 | 87.4 | 95.2 | 101 | 114 | 78.3 |
| CO[C@@H]1[C@H](N(C)C(=O)c2ccccc2)C[C@H]2O[C@]1(C)n1c3ccccc3c3c4c(c5c6ccccc6n2c5c31)C(=O)NC4 [Midostaurin] (1 nM) | 94.3% | 100% | 129% | 95.3% | 112% | 108% | 113% | 98.2% | 132% | 99.7% | 94.2% | 108% | 104% | 119% | 99.5% | 104% | 96.4% | 109% | 92.5 | 93.4 | 94 | 101 | 107 | 104 | 91.2 | 97.2 | 83 | 93.5 | 97.3 | 109 | 100 | 96.8 | 103 | 106 | 101 | 104 | 102 |
| CO[C@@]12[C@H](COC(N)=O)C3=C(C(=O)C(C)=C(N)C3=O)N1C[C@@H]1N[C@@H]12 [Mitomycin C] (1 nM) | 102% | 104% | 98.8% | 87.4% | 96.3% | 118% | 93.9% | 96.9% | 106% | 86.7% | 94.8% | 91.1% | 134% | 109% | 94.3% | 87.3% | 110% | 90.3% | 97.5 | 93.2 | 95.1 | 96 | 95.1 | 99.7 | 98.8 | 94.3 | 82.4 | 94.6 | 92.3 | 72.6 | 93.9 | 101 | 95.3 | 90.4 | 105 | 82.6 | 100 |
| CCNC(=O)c1noc(-c2cc(C(C)C)c(O)cc2O)c1-c1ccc(CN2CCOCC2)cc1 [NVP-AUY922] (0.1 nM) | 114% | 109% | 121% | 121% | 104% | 81.1% | 111% | 99.6% | 91.2% | 109% | 103% | 99.4% | 150% | 104% | 106% | 97.2% | 99.5% | 94.8% | 106 | 105 | 102 | 101 | 106 | 107 | 102 | 107 | 102 | 104 | 113 | 123 | 106 | 94.9 | 110 | 105 | 107 | 94.8 | 108 |
| CC1(C)CCC(c2ccc(Cl)cc2)=C(CN2CCN(c3ccc(C(=O)NS(=O)(=O)c4ccc(N[C@H](CCN5CCOCC5)CSc5ccccc5)c(S(=O)(=O)C(F)(F)F)c4)cc3)CC2)C1 [Navitoclax] (1 nM) | 83.4% | 88.6% | 81.6% | 84.6% | 79.1% | 67% | 73.8% | 59.8% | 88.2% | 88.9% | 90.9% | 69.9% | 99.2% | 99.2% | 90.2% | 103% | 109% | 78.4% | 94.4 | 93.5 | 101 | 88.7 | 99.2 | 91.8 | 106 | 94 | 95.6 | 98.2 | 95.7 | 98.6 | 93.8 | 97.6 | 90.3 | 95.1 | 102 | 74.1 | 92.4 |
| Cc1cn(-c2cc(NC(=O)c3ccc(C)c(Nc4nccc(-c5cccnc5)n4)c3)cc(C(F)(F)F)c2)cn1 [Nilotinib] (1 nM) | 88.4% and 92.2% | 110% and 104% | 87.8% and 80.8% | 83.9% and 95.6% | 82.6% and 95.6% | 83.1% and 101% | 82.1% and 80.6% | 111% and 89.4% | 95.5% and 94% | 87.9% and 96% | 103% and 87.9% | 94% and 90.9% | 97.8% and 107% | 91.4% and 96.9% | 96% and 99.2% | 107% and 98.7% | 106% and 112% | 93.3% and 92.6% | 101 | 95.4 | 105 | 95.8 | 98.8 | 105 | 96.9 | 98.5 | 95.7 | 96.1 | 93.5 | 112 | 96 | 100 | 93.1 | 106 | 102 | 98.1 | 103 |
